One assay deals with ACTH secretion. Conditions: reported in prior art; cited from earlier work.
The next assay concerns blood pressure. Conditions: reported in prior art; cited from earlier work.
The subject of assay [1] is brain edema after freeze injury. As to the kind of experiment: Freeze injury to cerebral cortex, brain water and sodium content (brain edema). It is filed as in vivo, rat. As to conditions: CRF 30 μg/kg s.c. 2×, tissues 3 hr after injury, ± S.E.M., N = 5. On the procedure:
In a second set of experiments, the brain surface, namely the cerebral cortex, was injured by freezing and the water and sodium content were measured in the cerebral cortex and in the basal ganglia, a part of the brain away from the freeze zone. The water and sodium content of the brain tissue served as an index of brain edema. After freeze injury, the water and sodium content of the cerebral cortex were evaluated relative to non-frozen tissues. CRF administered in two separate doses of 30 μg/kg subcutaneously, one dose 15 min. before the injury and the second dose 90 min. after the first dose, inhibited the two indices of brain edema.
Male SpragueDawley rats, 300-325 g, anesthetized with
ketamineacepromazine, were injected saline or CRF (30 μg/kg s.c.
2×) and injury to cerebral cortex was produced by applying a cold
probe to the skull for 1 min. Brain tissues were obtained 3 hr later and
analyzed for water and sodium content.

In assay [2] the test system is PAF-acether induced vascular leakage in muscle. As to the kind of experiment: Vascular leakage produced by PAF-acether injected subcutaneously into the abdomen. In kind it is in vivo, rat. As for the experimental part:
CRF: 30 μg/kg s.c. injected 30 min before subcutaneous
injection of PAF-acether (1 μg/0.1 ml/rat) into the
abdomen; muscle removed 0.5 hr later.

Assay [3] concerns muscle vascular permeability after celiotomy. In words: Vascular leakage after celiotomy (4 cm midline incision through abdominal muscle wall), Monastral blue. It is filed as in vivo, rat. As to conditions: for Area / Intensity / Lesion Size: tissues taken 0.5 hr after surgery; for vascular leakage (lesion size) relative to that of the saline-treated group: Table III. As for the experimental part:
Experiments were conducted on male Sprague-Dawley rats 243±15 gm (S.D., Simonsen Labs., Gilroy, Calif.) anesthetized with sodium pentobarbital, 60 mg/kg i.p. Monastral blue, 60 mg/kg i.v., was injected 0.2 ml/100 g, 3 min. before a 4 cm midline incision through the abdominal muscle wall (celiotomy). Saline or CRF was administered to randomized pairs with N=8 rats per group. The size of the lesion, measured as area in mm^2, and its light intensity, were quantified using the JAVA image-analysis software program. The light intensity, given in arbitrary units, was internally calibrated using Monastral blue solutions (1-30 mg/ml) placed on white filter paper. Values are mean ± S.E.M. FIG. 2 illustrates the respective amount of vascular permeability for one pair of rats (control and treated). Tables III and IV set out data from these experiments.
CRF: injected at various doses subcutaneously 30 min
before a 4 cm midline incision, tissues taken 0.5 hr
CRF: 30 μg/kg s.c. injected 2 hr before a 4 cm midline
incision, tissues taken 0.5 hr after surgery

In another assay the test system is edema of rat pawskin. Conditions: mediators injected into the rat pawskin; previously shown; cited from earlier work.
The test system of assay [4] is brain vascular permeability after cold injury. As to the kind of experiment: Cold (freeze) injury to brain, vascular leakage by Monastral blue staining. It is filed as in vivo, rat. An excerpt:
An in vivo model of injury to study brain edema has been developed as a reproducible edema model, which has the features of immediate cortical damage followed by the subsequent development of brain edema. This model is described by Chan et al., Brain Research 277, pp. 329-337 (1983). The model uses rats which are anesthetized. A 2.5 cm incision is made over the sagittal suture and the bone of the right hemisphere exposed. A 60 mm^2 plate attached to a brass cup filled with dry ice-acetone mixture, with a temperature of -50° C., is applied to the rat skull for one minute. The animals are sacrificed at various intervals after the onset of cold-injury. A dye is administered intravenously before the freezing. Cortical slices are then obtained of the brain.
16 male rats were randomly divided into eight pairs and one rat in each pair received either saline or CRF (subcutaneously twice at 30 μg/kg, 30 min and 10 min before cold injury). The animals were anesthetized with sodium pentobarbital, 60 mg/kg intraperitoneally, and injected with Monastral blue, 60 mg/kg intravenously. A cold probe was applied onto the skull for […] and the brains taken out 1 hour after cold injury. The staining of brain tissues with Monastral blue, a colloidal pigment that gets trapped between the albuminal surface of the endothelial cell and the basement membrane, was proportional to the degree of vascular leakage. The results from the first pair are shown as FIG. 1.
The size of the lesion, measured as area in mm^2, and the degree of staining intensity, were quantified using an image-analysis software program called JAVA (Jandel Corporation, San Rafael, Calif.). The stain intensity, given in arbitrary units, was internally calibrated using Monastral blue solutions (1-30 mg/ml) placed on white filter paper. Values are mean ± S.E.M.

[5] abbreviates: CRF 30 μg/kg s.c. 30 min before PAF-acether 1 μg/0.1 ml/rat s.c., muscle removed 0.5 hr later.
Where [6] appears, read: CRF 15 μg/kg s.c. 30 min before incision.
Where [7] appears, read: CRF 30 μg/kg s.c. 30 min before incision.
[8] abbreviates: CRF 30 μg/kg s.c. 2 hr before incision.
[9] abbreviates: CRF 60 μg/kg s.c. 30 min before incision.
[10] abbreviates: rat, CRF 30 μg/kg s.c. twice, 30 min and 10 min before cold injury, brains taken 1 hour after injury, mean ± S.E.M.

No end group written: not given here.

“H-Asn-Asp-Asp-Pro-Pro-Ile-Ser-Ile-Asp-Leu-Thr-Phe-His-Leu-Leu-Arg-Asn-Met-Ile-Glu-Met-Ala-Arg-Asn-Glu-Asn-Gln-Arg-Glu-Gln-Ala-Gly-Leu-Asn-Arg-Lys-Tyr- Leu-Asp-Glu-Val-NH2 (H-NDDPPISIDLTFHLLRNMIEMARNENQREQAGLNRKYLDEV-NH2) [carp urotensin]”: in the assay on ACTH secretion, the “effect on ACTH secretion” value is listed as “stimulate ACTH”. In addition, in the assay with blood pressure, the “effect on blood pressure” value is given as “lower blood pressure”.

For the compound “Ser-Gln-Glu-Pro-Pro-Ile-Ser-Leu-Asp-Leu-Thr-Phe-His-Leu-Leu-Arg-Glu-Val-Leu-Glu-Met-Thr-Lys-Ala-Asp-Gln-Leu-Ala-Gln-Gln-Ala-His-Ser-Asn-Arg-Lys-Leu-Leu-Asp-Ile-Ala-NH2 (SQEPPISLDLTFHLLREVLEMTKADQLAQQAHSNRKLLDIA-NH2) [oCRF]”, the “effect on blood pressure” value in the assay with blood pressure is “lower blood pressure”.

For the compound `CC[C@H](C)[C@H](NC(=O)[C@@H](NC(=O)[C@H](CC(=O)O)NC(=O)[C@H](CC(C)C)NC(=O)[C@H](CC(C)C)NC(=O)[C@H](CC(C)C)NC(=O)[C@H](CCCNC(=N)N)NC(=O)[C@H](CC(N)=O)NC(=O)[C@H](CC(N)=O)NC(=O)[C@H](C)NC(=O)[C@H](C)NC(=O)[C@H](CCC(N)=O)NC(=O)[C@H](CCC(N)=O)NC(=O)[C@H](CCCCN)NC(=O)[C@H](CCC(=O)O)NC(=O)[C@H](CCCCN)NC(=O)[C@H](CCC(=O)O)NC(=O)[C@H](CCC(N)=O)NC(=O)[C@H](CCCCN)NC(=O)[C@H](CCC(=O)O)NC(=O)[C@@H](NC(=O)[C@H](CCC(=O)O)NC(=O)[C@@H](NC(=O)[C@H](CCSC)NC(=O)[C@H](CCCCN)NC(=O)[C@H](CCCNC(=N)N)NC(=O)[C@H](CC(C)C)NC(=O)[C@H](CC(C)C)NC(=O)[C@H](CCC(=O)O)NC(=O)[C@H](CC(C)C)NC(=O)[C@H](CO)NC(=O)[C@H](CC(C)C)NC(=O)[C@H](CC(=O)O)NC(=O)[C@@H](NC(=O)[C@H](CO)NC(=O)[C@@H](NC(=O)[C@@H]1CCCN1C(=O)[C@@H]1CCCN1C(=O)CNC(=O)[C@@H]1CCC(=O)N1)[C@@H](C)CC)[C@@H](C)CC)[C@@H](C)CC)[C@@H](C)CC)[C@@H](C)O)C(N)=O` [Sauvagine], the “effect on ACTH secretion” value in the assay on ACTH secretion was “stimulating the secretion of ACTH”. Besides, the “effect on blood pressure” value in the assay with blood pressure is on record as “lowering blood pressure”.

Consider “Ser-Glu-Glu-Pro-Pro-Ile-Ser-Leu-Asp-Leu-Thr-Phe-His-Leu-Leu-Arg-Glu-Val-Leu-Glu-Met-Ala-Arg-Ala-Glu-Gln-Leu-Ala-Gln-Gln-Ala-His-Ser-Asn-Arg-Lys-Leu-Met-Glu-Ile-Ile-NH^2 (SEEPPISLDLTFHLLREVLEMARAEQLAQQAHSNRKLMEII-NH2) [CRF, 41 amino acid neuropeptide]”, for which, in the assay with ACTH secretion, the “effect on ACTH secretion” value was “stimulates ACTH release from pituitary cells”. Also, the SODIUM was determined as 215 ± 9 mEg/kg dry wt in assay [1] (BASAL GANGLIA (non-injured)) and 271 ± 8 mEg/kg dry wt in assay [1] (CEREBRAL CORTEX (injured)). In addition, the “WATER CONTENT” value in assay [1] (BASAL GANGLIA (non-injured)) came out at 76 ± 1%; in assay [1] (CEREBRAL CORTEX (injured)) it was 77 ± 4%. Moreover, the Area in assay [2] (setting [5]) turned out to be 188 ± 16 mm^2; in assay [3] (setting [6]), 505 ± 16 mm^2; in assay [3] (setting [7]) it was 361 ± 18 mm^2; in assay [3] (setting [8]) it was 477 ± 31 mm^2; in assay [3] (setting [9]) it was 257 ± 3 mm^2; in assay [4] (setting [10]) it was 20.8 ± 1.2 mm^2. Further, the Intesnity in assay [2] (setting [5]) is 1.4 ± 0.05. Besides, the “Lesion Size” value is given as 260 ± 26 in assay [2] (setting [5]); 1031 ± 44 in assay [3] (setting [6]); 676 ± 47 in assay [3] (setting [7]); 919 ± 51 in assay [3] (setting [8]); 468 ± 19 in assay [3] (setting [9]); 43 ± 3 in assay [4] (setting [10]). In addition, the “muscle lesion size relative to that of the saline-treated control group” value in assay [2] (Table V, CRF 30 μg/kg s.c.) stood at 44%. Moreover, the Intensity in assay [3] (setting [6]) was determined as 2.0 ± 0.03 arbitrary units; in assay [3] (setting [7]), 1.9 ± 0.05 arbitrary units; in assay [3] (setting [8]), 1.9 ± 0.03 arbitrary units; in assay [3] (setting [9]), 1.8 ± 0.05 arbitrary units. Moreover, the results for the “vascular leakage (lesion size) relative to that of the saline-treated group” value in assay [3] (setting [6]), in assay [3] (setting [7]) and in assay [3] (setting [9]) were 63%, 42% and 29%, respectively. For the same compound, the “lesion size relative to that of the saline-treated group” value in assay [3] (Table IV, CRF 30 μg/kg s.c. 2 hr before incision) stood at 59%; in assay [4] (Table I, brain cold injury, CRF 30 μg/kg s.c. twice), 44%. Further, the “effect on edema produced by serotonin, substance P, bradykinin, neurotensin, histamine” value in the assay with edema of rat pawskin is “antagonize the edema-producing properties”. For the same compound, the “correct assignment of brains to saline or CRF group by an observer unaware of pretreatment” value in assay [4] (eight pairs of rats, more damaged vs less damaged brain) is given as 8 out of 8. Moreover, the “Intensity (staining intensity)” value in assay [4] (setting [10]) is 2.0 ± 0.05 arbitrary units.
